The record followed here is patent US20050267054A1, “Antibacterial compounds with improved pharmacokinetic profiles” (priority 2002, published 2005).

Read-outs that look alike come from different tables or passages of the source.

This data set can be described thus: Pharmacokinetic profile, cassette dosing protocol in dog (IV and PO). It counts as in vivo. The conditions noted are these: male beagle dogs, 1 mg/kg; for AUC / clearance / half-life / Cmax / Tmax / Vd: dog, plasma; for clearance: read-out: CLp (IV) plasma clearance (converted); for Vd: male, beagle, iv. As to the method:
The pharmacokinetic profiles of EXAMPLE 20, EXAMPLE 22, EXAMPLE 29 and EXAMPLE 31 were evaluated using cassette dosing protocols in dog. The cassette dosing protocol in dogs combined three test compounds with the reference compound (EXAMPLE 104 of commonly-owned U.S. Pat. No. 5,866,549), each at a dose of 1 mg/kg. The compounds for each cassette were formulated as a solution in an aqueous vehicle containing 10% ethanol and one equivalent hydrochloric acid. Groups of three male beagle dogs received either an intravenous dose (IV) or an oral dose (PO). Sequential blood samples were taken from each animal for 24 hours after dosing. The plasma concentrations of the test compound and reference compounds were simultaneously determined using HPLC-MS/MS following liquid-liquid extraction of the samples. The results are shown in TABLE 2, in which CLp is plasma clearance; T1/2 and Tmax are expressed in hours; Cmax is expressed in μg/mL; AUC is expressed in μg·h/mL; F is percent bioavaibility; and Vc and Vb (volumes of distibution) are expressed in L/Kg.

Where [1] appears, read: intravenous dose, read-out: AUC (IV).
[2] abbreviates: intravenous dose, read-out: T1/2 (IV) (converted).
The mark [3] stands for this setting: oral dose, read-out: T1/2 (PO) (converted).
[4] abbreviates: intravenous dose, read-out: Vb (IV) volume of distribution.
The mark [5] stands for this setting: intravenous dose, read-out: Vc (IV) volume of distribution.

Usually AUC stands for the area under the concentration-time curve, a measure of exposure. A word on the Cmax: it is the maximum level reached in the sampled fluid or tissue. Broadly, the Tmax is the time from dosing to the highest level. On to `CC[C@H]1OC(=O)[C@@](C)(F)C(=O)[C@H](C)[C@@H](O[C@@H]2O[C@H](C)C[C@H](N(C)C)[C@H]2O)C(C)(OC/C=C/c2ccc(-c3nnn(C)n3)s2)C[C@@H](C)C(=O)[C@H](C)[C@H]2NC(=O)O[C@@]21C` (stereo in doubt) [EXAMPLE 31, (3aS,4R,7S,9R,10R,11S,13R,15R,15aR)-4-ethyl-7-fluoro-3a,7,9,11,13,15-hexamethyl-11-(((2E)-3-(5-(2-methyl-2H-tetraazol-5-yl)thien-2-yl)prop-2-enyl)oxy)-2,6,8,14-tetraoxotetradecahydro-2H-oxacyclotetradecino(4,3-d) (1,3)-oxazol-10-yl 3,4,6-trideoxy-3-(dimethylamino)-β-D-xylo-hexopyranoside], for which the AUC came out at 16100 ng·h/mL under setting [1] and 12600 ng·h/mL (oral dose, read-out: AUC (PO)). For the same compound, the clearance (intravenous dose) was 1.17 mL/min/kg. The half-life reads like this: under setting [2], 22.9 h; under setting [3], 17.2 h. For the setting “oral dose”, this compound gave a Cmax of 480 ng/mL. Moreover, for the setting “oral dose”, the Tmax came to 4.5 h. Further, the “F (PO) percent bioavaibility” value (oral dose) stood at 81.10%. The Vd by setting is: under setting [4], 2.3 L/kg; under setting [5], 1.1 L/kg.

`CC[C@H]1OC(=O)[C@H](C)C(=O)[C@H](C)[C@@H](O[C@@H]2O[C@H](C)C[C@H](N(C)C)[C@H]2O)C(C)(OCC#Cc2ccc(-c3nnn(C)n3)s2)C[C@@H](C)C(=O)[C@H](C)[C@H]2NC(=O)O[C@@]21C` (stereo in doubt) [EXAMPLE 29, (3aS,4R,7R,9R,10R,11S,13R,15R,15aR)-4-ethyl-3a,7,9,11,13,15-hexamethyl-11-((3-(5-(2-methyl-2H-tetraazol-5-yl)thien-2-yl)prop-2-ynyl)oxy)-2,6,8,14-tetraoxotetradecahydro-2H-oxacyclotetradecino(4,3-d) (1,3)-oxazol-10-yl 3,4,6-trideoxy-3-(dimethylamino)-β-D-xylo-hexopyranoside]: under “oral dose”, the “F (PO) percent bioavaibility” value is recorded as 80.30%. The Vd is 1.2 L/kg under setting [4] and 0.9 L/kg under setting [5].

`CC[C@H]1OC(=O)[C@@](C)(F)C(=O)[C@H](C)[C@@H](O[C@@H]2O[C@H](C)C[C@H](N(C)C)[C@H]2O)C(C)(OCC#Cc2ccc(-c3nnn(C)n3)s2)C[C@@H](C)C(=O)[C@H](C)[C@H]2NC(=O)O[C@@]21C` (stereo in doubt) [EXAMPLE 20, (3aS,4R,7S,9R,10R,11S,13R,15R,15aR)-4-ethyl-7-fluoro-3a,7,9,11,13,15-hexamethyl-11-((3-(5-(2-methyl-2H-tetraazol-5-yl)thien-2-yl)prop-2-ynyl)oxy)-2,6,8,14-tetraoxotetradecahydro-2H-oxacyclotetradecino(4,3-d) (1,3)-oxazol-10-yl 3,4,6-trideoxy-3-(dimethylamino)-β-D-xylo-hexopyranoside]: the AUC stood at 7290 ng·h/mL under setting [1] and 5140 ng·h/mL (oral dose, read-out: AUC (PO)). Also, the clearance (intravenous dose) is 2.67 mL/min/kg. The half-life was 14.4 h under setting [2] and 11.1 h under setting [3]. For the same compound, the peak level (oral dose) (Cmax) was 250 ng/mL. Moreover, the Tmax (oral dose) came out at 2 h. Moreover, the “F (PO) percent bioavaibility” value (oral dose) is 73.60%. Also, the Vd under setting [4] is 3.1 L/kg and the Vd under setting [5] worked out at 1.6 L/kg.

`CC[C@H]1OC(=O)[C@H](C)C(=O)[C@H](C)[C@@H](O[C@@H]2O[C@H](C)C[C@H](N(C)C)[C@H]2O)C(C)(OC/C=C/c2ccc(-c3nnn(C)n3)s2)C[C@@H](C)C(=O)[C@H](C)[C@H]2NC(=O)O[C@@]21C` (stereo in doubt) [EXAMPLE 22, (3aS,4R,7R,9R,10R,11S,13R,15R,15aR)-4-ethyl-3a,7,9,11,13,15-hexamethyl-11-(((2E)-3-(5-(2-methyl-2H-tetraazol-5-yl)thien-2-yl)prop-2-enyl)oxy)-2,6,8,14-tetraoxotetradecahydro-2H-oxacyclotetradecino(4,3-d) (1,3)-oxazol-10-yl 3,4,6-trideoxy-3-(dimethylamino)-β-D-xylo-hexopyranoside]: the AUC runs as follows: under setting [1], 11500 ng·h/mL; (oral dose, read-out: AUC (PO)) 6770 ng·h/mL. In addition, where the note is “intravenous dose”, the clearance was 1.5 mL/min/kg. Besides, the half-life by setting is: under setting [2], 8.4 h; under setting [3], 7.8 h. Moreover, the peak level (oral dose) (Cmax) was 490 ng/mL. For the same compound, the Tmax (oral dose) came out at 1.5 h. In addition, the “F (PO) percent bioavaibility” value (oral dose) is listed as 63.00%. Moreover, the Vd came to 1.1 L/kg under setting [4] and 0.9 L/kg under setting [5].
